{
  "source": "patent US4181708A",
  "about": "“Rumen-stable pellets” (Eastman Kodak Company, priority 1978, dated 1980)",
  "origin": "cited, not measured here",
  "conditions": "for Solubility: water",
  "note": "Read-outs that look alike come from different tables or passages of the source.",
  "data": [
    {"smiles": "N=C(N)NCCC[C@H](N)C(=O)O", "note": "[L - Arginine]", "values": [
      {"measurement": "pH of saturated solution", "value": 11.8}
    ]},
    {"smiles": "N[C@@H](Cc1ccc(O)cc1)C(=O)O", "note": "[L(-) - Tyrosine]", "values": [
      {"measurement": "pH of saturated solution", "value": 7.3}
    ]},
    {"smiles": "N[C@@H](CS)C(=O)O", "note": "[L(-) - Cysteine]", "values": [
      {"measurement": "pH of saturated solution", "value": 3.7},
      {"measurement": "Solubility", "value": 0.01, "unit": "g./100 g. water"}
    ]},
    {"smiles": "CC(N)C(=O)O", "note": "(racemic) [DL - Alanine]", "values": [
      {"measurement": "pH of saturated solution", "value": 6.2}
    ]},
    {"smiles": "CC(C)C[C@H](N)C(=O)O", "note": "[L(-) - Lencine]", "values": [
      {"measurement": "Solubility", "setting": "at 25° C.", "value": 2.0, "unit": "g./100 g. water"}
    ]},
    {"smiles": "NC(Cc1ccccc1)C(=O)O", "note": "(racemic) [DL - Phenylalanine]", "values": [
      {"measurement": "Solubility", "setting": "at 25° C.", "value": 3.0, "unit": "g./100 g. water"},
      {"measurement": "pH of saturated solution", "value": 5.6}
    ]},
    {"smiles": "CSCCC(N)C(=O)O", "note": "(racemic) [DL - Methionine]", "values": [
      {"measurement": "pH of saturated solution", "value": 5.7}
    ]},
    {"smiles": "NC(=O)C[C@H](N)C(=O)O", "note": "[L - Asparagine]", "values": [
      {"measurement": "pH of saturated solution", "value": 4.7},
      {"measurement": "Solubility", "value": 3.1, "unit": "g./100 g. water"}
    ]}
  ]
}
